# Source: ChEMBL document CHEMBL1201862, “PubChem BioAssay data set” (2004)
#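 Step 1: Grow cells in 96-well plates. Step 2: Expose to compound for 48 hours at 5 concentrations. Step 3: Interpolate endpoints linearly; if unreached, use highest concentration. GI50 = concentration required for 50% inhibition of growth.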 Activity calls are given as the source filed them. Cut-off read from the data, not from the text of the source: active = GI50 up to about 1.1 µM and inactive = higher.
# Key:
# Test in all cases: inhibition of tumour cell growth, NCI panel, 48 h
# [1] = test system: OVCAR-8
# [2] = test system: SN12C
# [3] = test system: M14
# [4] = test system: HOP-62
# [5] = test system: SW-620
# [6] = test system: IGROV-1
# [7] = test system: LOX IMVI
# [8] = test system: KM12
# [9] = test system: UO-31
# [10] = test system: HT-29
# [11] = test system: SF-295
# [12] = test system: UACC-62
# [13] = test system: HCT-15
# [14] = test system: SNB-19
# [15] = test system: HCT-116
# [16] = test system: UACC-257
# [17] = test system: SNB-75
# [18] = test system: MDA-N
# [19] = test system: MCF7
# [20] = test system: NCI/ADR-RES
Compound,GI50 [1],GI50 [2],GI50 [3],GI50 [4],GI50 [5],GI50 [6],GI50 [7],GI50 [8],GI50 [9],GI50 [10],GI50 [11],GI50 [12],GI50 [13],GI50 [14],GI50 [15],GI50 [16],GI50 [17],GI50 [18],GI50 [19],GI50 [20]
c1ccc2c(c1)C1=NCCN1c1ccccc1-2,2.51 µM (inactive),2.45 µM (inactive),4.01 µM (inactive),3.25 µM (inactive),2.37 µM (inactive),3.44 µM (inactive),2.95 µM (inactive),2.96 µM (inactive),2.77 µM (inactive),2.41 µM (inactive),5.09 µM (inactive),3.37 µM (inactive),3.1 µM,3.46 µM (inactive),1.23 µM (inactive),2.7 µM (inactive),3.47 µM (inactive),–,–,–
Cn1c2ccccc2c(=O)c2ccc(Cl)cc21,> 10 µM (inactive),> 10 µM (inactive),–,> 10 µM (inactive),> 10 µM (inactive),> 10 µM (inactive),> 10 µM (inactive),> 10 µM (inactive),–,> 10 µM (inactive),> 10 µM (inactive),> 10 µM (inactive),> 10 µM,0.0676 µM (active),> 10 µM (inactive),–,8.97 µM (inactive),> 10 µM (inactive),> 10 µM (inactive),–
O=C(CNc1ccccc1Cl)Nn1c(-c2ccccc2)nc2ccccc2c1=O,40.7 µM (inactive),34.4 µM (inactive),> 10 µM (inactive),27.9 µM (inactive),19.8 µM (inactive),23.7 µM (inactive),14.7 µM (inactive),28.6 µM (inactive),47.1 µM (inactive),> 10 µM (inactive),31.4 µM (inactive),> 10 µM (inactive),–,> 10 µM (inactive),25.2 µM (inactive),50.6 µM (inactive),16.8 µM (inactive),–,14.8 µM (inactive),–
O=C(OCc1ccccc1CN1CCOCC1)c1ccc(Br)cc1,85.1 µM (inactive),76 µM (inactive),52.8 µM (inactive),72.3 µM (inactive),> 100 µM (inactive),47.8 µM (inactive),55 µM (inactive),–,95.7 µM (inactive),20.5 µM (inactive),–,55 µM (inactive),57.1 µM,> 100 µM (inactive),32.6 µM (inactive),43.2 µM (inactive),> 100 µM (inactive),–,39.6 µM (inactive),42 µM (inactive)
CC(C)(C)c1ccc2c(c1)S(=O)(=O)Nc1cccc(c1)NS(=O)(=O)c1cc(C(C)(C)C)ccc1OCCOCCO2,> 100 µM (inactive),> 100 µM (inactive),> 100 µM (inactive),> 100 µM (inactive),> 100 µM (inactive),> 100 µM (inactive),> 100 µM (inactive),> 100 µM (inactive),> 100 µM (inactive),> 100 µM (inactive),> 100 µM (inactive),> 100 µM (inactive),> 100 µM,> 100 µM (inactive),> 100 µM (inactive),> 100 µM (inactive),> 100 µM (inactive),–,–,–
COc1ccc(-c2cc(-c3cc(F)c(Cl)cc3Cl)on2)cc1OC,72.3 µM (inactive),32.4 µM (inactive),24.9 µM (inactive),15.6 µM (inactive),7.93 µM (inactive),68.1 µM (inactive),31.2 µM (inactive),14.3 µM (inactive),95.9 µM (inactive),22.5 µM (inactive),13.2 µM (inactive),–,5.42 µM,> 100 µM (inactive),29.2 µM (inactive),22.4 µM (inactive),28.9 µM (inactive),2.44 µM (inactive),–,11.4 µM (inactive)
CC1=C(C(=O)NCc2ccccc2)C(c2ccccc2[N+](=O)[O-])C(C(=O)NCc2ccccc2)=C(C)N1,13.1 µM (inactive),12 µM (inactive),11.7 µM (inactive),20.6 µM (inactive),14.5 µM (inactive),18.4 µM (inactive),7.24 µM (inactive),10.4 µM (inactive),13.9 µM (inactive),12.8 µM (inactive),12.4 µM (inactive),8.49 µM (inactive),7.8 µM,14.2 µM (inactive),6.75 µM (inactive),13.3 µM (inactive),13.6 µM (inactive),–,–,–
S=C(Nc1cc(Cl)c(Cl)cc1Cl)SCc1ccccc1,20.1 µM (inactive),> 100 µM (inactive),34.9 µM (inactive),26 µM (inactive),35.2 µM (inactive),33.9 µM (inactive),–,19.8 µM (inactive),40.6 µM (inactive),20.8 µM (inactive),19.4 µM (inactive),66.5 µM (inactive),18.1 µM,28.6 µM (inactive),32.3 µM (inactive),19 µM (inactive),39.3 µM (inactive),–,38.5 µM (inactive),24.9 µM (inactive)
